Reference: patent publication US20100112173A1, “ADDITIVE TO LOW-ALCOHOL OR SOFT DRINKS AND METHODS OF CONDITIONING DRINKS” (priority 2007, published 2010)

How the values were obtained:
[1] = Comparative toxicometry, DL 50 m
[2] = Comparative toxicometry, DL 50 ks
[3] = cited from earlier work
[4] = cited from earlier work; remark: listed apart in the source
[5] = Comparative toxicometry, K sim coefficient; type: in vivo
[6] = Hazard (toxicity) class assignment
[7] = Comparative toxicometry, Lim sub ch (30 days); type: in vivo
[8] = Bioavailability / metabolism of the selenium compound

O=[Se]([O-])[O-].[Na+].[Na+] [Na2SeO3, sodium selenite, reference compound]
DL 50 m [1]: 6 mg/kg | DL 50 ks [2]: 7 to 14 mg/kg | ADI (human) ([3]; human): 0.0007 mg/kg | MAC (human) ([3]; human): 0.1 mg/m^3 | class of hazard subject to GOST 12.1.007-76 [4]: 1 (first) class of hazard | K sim (according to Yu. S. Kogan) [5]: (1.6)

Cc1n[nH]c(C)c1[Se]c1c(C)n[nH]c1C [DMDPS (Selekor-S), Di-(3,4)-methyldipyrazolylselenide]
DL 50 m [1]: 4,800-6,000 mg/kg | DL 50 ks [2]: 6,000-8,100 mg/kg | Maximum allowable concentrations [3]: 8,100 μg/kg | ADI (human) ([3]; human): >0.02 mg/kg | K sim (Limetal) ([5]; Limetal): (>6) | K sim (according to Yu. S. Kogan) [5]: (5) | hazard class according to Zaugolnikov Table [6]: fourth hazard class | Lim sub ch (30 days) [7]: 400 to 800 mg/kg | metabolism (bioavailability) [8]: 85-95%

O=[Se](=O)(O)O [sodium selenate]
class of hazard subject to GOST 12.1.007-76 [4]: 1 (first) class of hazard
